Experimental data reported in US4317823A, “Pyrazolobenzodiazepinones, their intermediates, their compositions and their use” (Byk Gulden Lomberg Chemische Fabrik GmbH, priority 1979, dated 1982).

Assays:
[1] = system: Shay rats; experiment: Anti-ulcerogenic action (protective action on the stomach), Shay rats: pylorus ligature plus oral acetylsalicylic acid, ulcer index; assay type: in vivo; conditions: for TQ LD50/ED50 (therapeutic quotient): LD50 i.v. mice / ED50 p.o. rats; for ED50: Rattus norvegicus, Shay rats, oral 1 hour before pylorus ligature, dose which reduces the ulcer index by 50% compared with the control group, read-out: Protective action on the stomach ED50 administered perorally to rats; for dose dependence of the anti-ulcerogenic action (dose/action curve): Shay model
Procedure: ED50 = the dose which reduces the ulcer index for the group treated
by 50% compared with the control group
The anti-ulcerogenic action is tested by a method using the so-called Shay rats:
(§1) Ulcers are provoked in rats which have been starved for 24 hours (female rats, 180 to 200 g, 4 animals in a cage with a high grille) by means of a pylorus ligature (under anaesthesia with diethyl ether) and oral administration of 100 mg/10 ml/kg of acetylsalicylic acid. The substances to be tested are administered orally (10 ml/kg) 1 hour before the pylorus ligature. The closure of the wound is effected by means of Michel's clips. The animals are killed 4 hours afterwards under ether anaesthesia by dislocating the atlas, and the stomach is cut out. The stomach is opened longitudinally and is fixed on a cork slab, the quantity of gastric juice secreted (volume) having been determined beforehand; the number and size (=diameter) of ulcers present are determined by means of a stereomicroscope at a 10-fold magnification. The product of the degree of severity (in accordance with the following rating scale) and the number of the ulcers is used as an individual ulcer index.
ulcer diameter 0.1-1.4 mm 1
The reduction in the average ulcer index in each group treated compared with that of the control group (=100%) is used as a measure of the anti-ulcerogenic effect. The ED50 indicates the dose which reduces the average ulcer index by 50%.

[2] = system: stomach secretion; experiment: Inhibition of stomach secretion (gastric juice volume) in rats; assay type: in vivo, rat; conditions: 4 hours after administration of the antiulcerogenic ED50
Procedure: *% inhibition = inhibition (in %) of stomach secretion 4 hours after
administration of the antiulcerogenic ED50
as §1

[3] = Determination of toxicity, intravenous LD50 in mice; conditions: mouse, in vivo, female NMRI mice, 7 days observation, 5 animals per dose, read-out: Toxicity LD50 administered intravenously to mice
Procedure: LD50 = the dose at which 50% of the animals die
The toxicity investigations are carried out on female NMRI mice (body weight 22 to 26 g). The animals (5 animals per dose) receive feed and water ad lib. Various doses of the substances are administered intravenously (duration of injection 1 minute). The observation period is 7 days. The LD50 (the dose at which 50% of the animals die) is determined by means of a linear regression.

Structure (SMILES) | TQ LD50/ED50 (therapeutic quotient) [1] | ED50 [1] | inhibitory effect (anti-ulcerogenic action) ([1]; rats, 30 mg/kg) | dose dependence of the anti-ulcerogenic action (dose/action curve) ([1]; rats) | % inhibition of stomach secretion in rats [2] | LD50 at 168 h [3] | increase in the anti-ulcerogenic action above the ED50 ([1]; even at 300 mg/kg)
Cc1nn(C)c2c1N(C(=O)CN1CCN(C)CC1)c1ccccc1NC2=O [Compound 2, 1,3-dimethyl-4-[(4-methylpiperazin-1-yl)acetyl]-1,4,9,10-tetrahydropyrazolo[4,3-b][1,5]benzodiazepin-10-one] | 84.0 | 2.5 mg/kg | up to 95% | depends strictly on the dose | 20% | 210 mg/kg | –
CC1(C)[C@@H](OC(=O)CCC(=O)O)CC[C@]2(C)[C@H]3C(=O)C=C4[C@@H]5C[C@@](C)(C(=O)O)CC[C@]5(C)CC[C@@]4(C)[C@]3(C)CC[C@@H]12 [Compound 1, carbenoxolone, reference compound] | 4.1 | ~70 mg/kg | – | flattens out very considerably | 7% | – | not possible to achieve any substantial increase in the anti-ulcerogenic action
